Data: ChEMBL document CHEMBL1201862, “PubChem BioAssay data set” (2004)
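In this assay, cells in 96-well plates receive the compound at five concentrations for 48 hours. Endpoints are linearly interpolated between the surrounding concentrations. GI50: concentration for 50% inhibition of growth.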 Activity calls are given as the source filed them. Cut-off read from the data, not from the text of the source: active = GI50 up to about 1.1 µM and inactive = higher.

Legend:
Experiment in all cases: NCI tumour cell line growth inhibition, 48 h
[1] = tested on: UACC-257
[2] = tested on: A549
[3] = tested on: OVCAR-5
[4] = tested on: KM12
[5] = tested on: IGROV-1
[6] = tested on: Hs-578T
[7] = tested on: HOP-92
[8] = tested on: HCT-15
[9] = tested on: UO-31
[10] = tested on: T47D
[11] = tested on: SK-OV-3
[12] = tested on: CCRF-CEM
[13] = tested on: HT-29
[14] = tested on: SK-MEL-5
[15] = tested on: SF-539
[16] = tested on: NCI-H23
[17] = tested on: 786-0
[18] = tested on: MDA-MB-435
[19] = tested on: A498
[20] = tested on: NCI-H460

Row | Compound | GI50 [1] | GI50 [2] | GI50 [3] | GI50 [4] | GI50 [5] | GI50 [6] | GI50 [7] | GI50 [8] [µM] | GI50 [9] | GI50 [10] | GI50 [11] | GI50 [12] | GI50 [13] | GI50 [14] | GI50 [15] | GI50 [16] | GI50 [17] | GI50 [18] | GI50 [19] | GI50 [20]
1 | O=C(c1ccccc1)c1ccc2nc3n(c2c1)C(c1c(Cl)cccc1Cl)SC3 (stereo not given) | 13.6 µM (inactive) | 4.49 µM (inactive) | 3.95 µM (inactive) | 2.87 µM (inactive) | 4.48 µM (inactive) | 3.67 µM (inactive) | 5.08 µM (inactive) | 3.35 | 3.17 µM (inactive) | 3.08 µM (inactive) | 4.31 µM (inactive) | 1.27 µM (inactive) | 6.31 µM (inactive) | 3.24 µM (inactive) | 5.68 µM (inactive) | 5.66 µM (inactive) | 3.86 µM (inactive) | 1.77 µM (inactive) | 15.7 µM (inactive) | 3.66 µM (inactive)
2 | COC(=O)[C@H](Cc1ccccc1)NC(=O)c1ccc(CNC(=O)/C=C/c2ccc(OCc3ccccc3)cc2)cc1 | 2.49 µM (inactive) | 27 µM (inactive) | 38.2 µM (inactive) | 19.1 µM (inactive) | 2.7 µM (inactive) | 5.66 µM (inactive) | 2.45 µM (inactive) | 40.1 | 14 µM (inactive) | 18.8 µM (inactive) | 24.4 µM (inactive) | 17.4 µM (inactive) | 13.5 µM (inactive) | 7.87 µM (inactive) | 16.4 µM (inactive) | 14.5 µM (inactive) | 5.11 µM (inactive) | 2.62 µM (inactive) | 2.59 µM (inactive) | 19.5 µM (inactive)
3 | COC(=O)c1ccc(C)cc1CC1Cc2c(C)cccc2C1=O (stereo not given) | 10.4 µM (inactive) | 7.57 µM (inactive) | 34.4 µM (inactive) | 3.4 µM (inactive) | 5.62 µM (inactive) | 8.55 µM (inactive) | 16.9 µM (inactive) | 3.05 | 15.9 µM (inactive) | 7.93 µM (inactive) | 6.21 µM (inactive) | 7.05 µM (inactive) | 3.04 µM (inactive) | 5.82 µM (inactive) | 8.17 µM (inactive) | 12.4 µM (inactive) | 12.8 µM (inactive) | 1.82 µM (inactive) | 4.95 µM (inactive) | 17.8 µM (inactive)
4 | CCOC(=O)CCSc1nc2ccc(I)cc2c(=O)n1Cc1ccccc1 | 25.5 µM (inactive) | 31.6 µM (inactive) | > 83.8 µM (inactive) | 22.3 µM (inactive) | 9.91 µM (inactive) | 25.2 µM (inactive) | 13.6 µM (inactive) | 18 | 0.395 µM (active) | 26.9 µM (inactive) | > 69.8 µM (inactive) | 15.8 µM (inactive) | 34.4 µM (inactive) | 12.6 µM (inactive) | 36.4 µM (inactive) | 15.6 µM (inactive) | 25.6 µM (inactive) | 27.5 µM (inactive) | 24.6 µM (inactive) | 22.6 µM (inactive)
5 | O=S1(=O)OC(c2ccc(O)cc2)(c2ccc(O)cc2)c2ccccc21 [PHENOLSULFONPHTHALEIN] | > 100 µM (inactive) | > 100 µM (inactive) | > 100 µM (inactive) | > 100 µM (inactive) | > 100 µM (inactive) | > 100 µM (inactive) | > 100 µM (inactive) | > 100 | > 100 µM (inactive) | > 100 µM (inactive) | > 100 µM (inactive) | > 100 µM (inactive) | > 100 µM (inactive) | > 100 µM (inactive) | > 100 µM (inactive) | > 100 µM (inactive) | > 100 µM (inactive) | > 100 µM (inactive) | > 100 µM (inactive) | > 100 µM (inactive)
